Test results from patent US20120295907A1, “INSECTICIDAL COMPOUNDS” (SYNGENTA CROP PROTECTION, LLC, priority 2009, published 2012).

Key:
Format in all cases: in vivo
Spodoptera littoralis = Spodoptera littoralis (Egyptian Cotton Leafworm) cotton leaf disc spray test; settings: foliar, 72 h, 200 ppm spray on cotton leaf discs, L1 larvae, mortality, feeding behavior, growth regulation 3 DAT
Heliothis virescens = Heliothis virescens (Tobacco Budworm) egg test on artificial diet; settings: 96 h, 200 ppm (concentration in well 18 ppm), eggs 0-24 h old on artificial diet, 4 days, egg mortality, larval mortality, growth regulation
Plutella xylostella = Plutella xylostella (Diamond Back Moth) artificial diet MTP test; settings: 144 h, 200 ppm (concentration in well 18 ppm), L2 larvae, 6 days, larval mortality, growth regulation
Diabrotica balteata = Diabrotica balteata (Corn Root Worm) artificial diet MTP test; settings: 120 h, 200 ppm (concentration in well 18 ppm), L2 larvae, 5 days, larval mortality, growth regulation

Compound | pest or weed control at 200 ppm (Spodoptera littoralis) [%] | pest or weed control at 200 ppm (Heliothis virescens) [%] | pest or weed control at 200 ppm (Plutella xylostella) [%] | pest or weed control at 200 ppm (Diabrotica balteata) [%]
COc1c(NC(=O)c2cc([N+](=O)[O-])c(Cl)cc2F)cccc1C(=O)Nc1c(Cl)cc(C(F)(C(F)(F)F)C(F)(F)C(F)(F)F)cc1Br (stereo not drawn) [B102] | ≥ 80 | ≥ 80 | ≥ 80 | 
CCc1cc(C(F)(C(F)(F)F)C(F)(F)C(F)(F)F)cc(C)c1NC(=O)c1cccc(NC(=O)c2ccc(Cl)s2)c1OC (stereo not drawn) [A21] | ≥ 80 | ≥ 80 | ≥ 80 | 
COc1c(NC(=O)c2cc([N+](=O)[O-])ccc2F)cccc1C(=O)Nc1c(Cl)cc(C(F)(C(F)(F)F)C(F)(F)C(F)(F)F)cc1Br (stereo not drawn) [B148] | ≥ 80 | ≥ 80 | ≥ 80 | 
COc1c(NC(=O)c2sccc2C)cccc1C(=O)Nc1c(Cl)cc(C(F)(C(F)(F)F)C(F)(F)C(F)(F)F)cc1Br (stereo not drawn) [B88] | ≥ 80 | ≥ 80 | ≥ 80 | 
COc1c(NC(=O)c2cc(Cl)ccc2F)cccc1C(=O)Nc1c(Cl)cc(C(F)(C(F)(F)F)C(F)(F)C(F)(F)F)cc1Br (stereo not drawn) [B10] | ≥ 80 | ≥ 80 | ≥ 80 | 
COc1c(NC(=O)c2ncccc2C(F)(F)F)cccc1C(=O)Nc1c(Cl)cc(C(F)(C(F)(F)F)C(F)(F)C(F)(F)F)cc1Br (stereo not drawn) [B188] | ≥ 80 | ≥ 80 |  | 
COc1c(NC(=O)c2ccc(C)cc2Cl)cccc1C(=O)Nc1c(Cl)cc(C(F)(C(F)(F)F)C(F)(F)C(F)(F)F)cc1Br (stereo not drawn) [B182] | ≥ 80 | ≥ 80 | ≥ 80 | 
COc1c(NC(=O)c2csnn2)cccc1C(=O)Nc1c(Cl)cc(C(F)(C(F)(F)F)C(F)(F)C(F)(F)F)cc1Br (stereo not drawn) [B39] | ≥ 80 | ≥ 80 | ≥ 80 | 
COc1c(NC(=O)c2cc(Cl)cc(I)c2)cccc1C(=O)Nc1c(Cl)cc(C(F)(C(F)(F)F)C(F)(F)C(F)(F)F)cc1Br (stereo not drawn) [B68] | ≥ 80 | ≥ 80 |  | 
COCc1nc(C)c(C(=O)Nc2cccc(C(=O)Nc3c(Cl)cc(C(F)(C(F)(F)F)C(F)(F)C(F)(F)F)cc3Br)c2OC)s1 (stereo not drawn) [B95] | ≥ 80 | ≥ 80 | ≥ 80 | 
COc1c(NC(=O)c2c(C)noc2C)cccc1C(=O)Nc1c(Cl)cc(C(F)(C(F)(F)F)C(F)(F)C(F)(F)F)cc1Br (stereo not drawn) [B157] | ≥ 80 | ≥ 80 |  | 
COc1c(NC(=O)c2ccccc2C)cccc1C(=O)Nc1c(C)cc(C(F)(C(F)(F)F)C(F)(F)C(F)(F)F)cc1C (stereo not drawn) [F2] | ≥ 80 | ≥ 80 | ≥ 80 | 
COc1c(NC(=O)c2cc(C(F)(F)F)ccc2F)cccc1C(=O)Nc1c(Cl)cc(C(F)(C(F)(F)F)C(F)(F)C(F)(F)F)cc1Br (stereo not drawn) [B24] | ≥ 80 |  |  | 
COc1c(NC(=O)c2ccco2)cccc1C(=O)Nc1c(C)cc(C(F)(C(F)(F)F)C(F)(F)C(F)(F)F)cc1C (stereo not drawn) [F4] | ≥ 80 | ≥ 80 | ≥ 80 | 
COc1c(NC(=O)c2sc(Cl)nc2C)cccc1C(=O)Nc1c(Cl)cc(C(F)(C(F)(F)F)C(F)(F)C(F)(F)F)cc1Br (stereo not drawn) [B105] | ≥ 80 |  | ≥ 80 | 
COc1c(NC(=O)c2ocnc2C)cccc1C(=O)Nc1c(Cl)cc(C(F)(C(F)(F)F)C(F)(F)C(F)(F)F)cc1Br (stereo not drawn) [B94] | ≥ 80 | ≥ 80 | ≥ 80 | 
COc1c(NC(=O)c2ccccc2OC(F)(F)F)cccc1C(=O)Nc1c(Cl)cc(C(F)(C(F)(F)F)C(F)(F)C(F)(F)F)cc1Br (stereo not drawn) [B16] | ≥ 80 |  | ≥ 80 | 
COc1c(NC(=O)c2ccc([N+](=O)[O-])c(O)c2)cccc1C(=O)Nc1c(Cl)cc(C(F)(C(F)(F)F)C(F)(F)C(F)(F)F)cc1Br (stereo not drawn) [B181] |  |  |  | ≥ 80
COc1ccccc1C(=O)Nc1cccc(C(=O)Nc2c(Cl)cc(C(F)(C(F)(F)F)C(F)(F)F)cc2Cl)c1OC [E15] | ≥ 80 | ≥ 80 | ≥ 80 | 
COc1c(NC(=O)c2ccccc2OC(F)(F)F)cccc1C(=O)Nc1c(Cl)cc(C(F)(C(F)(F)F)C(F)(F)F)cc1Cl [E14] | ≥ 80 | ≥ 80 | ≥ 80 | 
COc1c(NC(=O)c2ncc(Br)cn2)cccc1C(=O)Nc1c(Cl)cc(C(F)(C(F)(F)F)C(F)(F)C(F)(F)F)cc1Br (stereo not drawn) [B187] | ≥ 80 |  | ≥ 80 | ≥ 80
COc1c(NC(=O)c2ccc(S(C)(=O)=O)c(OC)c2Cl)cccc1C(=O)Nc1c(Cl)cc(C(F)(C(F)(F)F)C(F)(F)C(F)(F)F)cc1Br (stereo not drawn) [B114] | ≥ 80 | ≥ 80 | ≥ 80 | 
COc1c(NC(=O)c2ccco2)cccc1C(=O)Nc1c(Cl)cc(C(F)(C(F)(F)F)C(F)(F)F)cc1Cl [E10] | ≥ 80 | ≥ 80 | ≥ 80 | 
